Test results: patent publication US20240408068A1, “Helicase Primase Inhibitors For Treating Cancer In A Combination Therapy With Oncolytic Viruses” (priority 2018, published 2024)
pIC50: −log10 of the molar value.

Experiments:
HSV-2 = test: In vitro activity, HSV-2 infected Vero cells; assay type: cell-based; conditions: Human alphaherpesvirus 2, Vero
Procedure: (§1) The in vitro activity of the new compounds was measured as described in WO2017/174640 and in WO2019/068817.

HSV-1 ACV resistant = test: In vitro activity, HSV-1 ACV resistant; assay type: cell-based; conditions: Human alphaherpesvirus 1
Procedure: as §1

HSV-1 = test: Viral DNA (HSV-1 copies) within treated tumor samples, first oHSV experiment; assay type: in vivo, Balbc/j mice; conditions: for Total HSV-1 [copy/g tumor] mean: day 19
Procedure: At the end of efficacy monitoring period (on day 19 post-tumor cell inoculation, around ˜3-4 h after the last treatment with test compound), all surviving mice were anesthetized using isoflurane gas anesthesia (4% induction and 2% maintain) prior to blood sampling on heparin-coated tubes by retro-orbital puncture, for plasma collection. In addition, tumors were collected, snap-frozen, and stored at −80° C. until further analysis.
The tumors were collected as described above, snap frozen in liquid nitrogen and DNA of ˜25 mg tumor samples was extracted with a QIAamp DNA Mini Kit (Cat. No. 51326) on a QIAcube machine. 10 μL of the 200 μL HSV DNA containing elution volumue was quantified with an Argene HSV R-gene kit (Ref.: 69-004B) and normalized to 1 gram tumor sample (see below).

[1] = in vivo; cited from earlier work

## Cc1nc(N(C)C(=O)Cc2ccc(-c3cc(F)ccc3F)cc2)sc1[S@@](C)(=N)=O [Example 7(−), (−)-(S)-2-(2′,5′-Difluoro-[1,1′-biphenyl]-4-yl)-N-methyl-N-(4-methyl-5-(S-methylsulfonimidoyl)thiazol-2-yl)acetamide]
HSV-2
  pIC50: 7.30 to 8.00
HSV-1 ACV resistant
  pIC50: 7.30 to 8.00
HSV-1; Group 5: HSV-1 5 × 10^6 pfu + 10 mg/kg 72 pi
  Total HSV-1 [copy/g tumor] mean: 154493 copy/g tumor
HSV-1; Group 6: HSV-1 5 × 10^6 pfu + 10 mg/kg 72 pi + αPD1 + αCTLA-4
  Total HSV-1 [copy/g tumor] mean: 51301 copy/g tumor
HSV-1; Group 7: HSV-1 1 × 10^8 pfu + 10 mg/kg 72 hpi
  Total HSV-1 [copy/g tumor] mean: 74312 copy/g tumor
HSV-1; Group 8: HSV 5 × 10^6 pfu + 10 mg/kg 2 h pi
  Total HSV-1 [copy/g tumor] mean: 10600 copy/g tumor
HSV-1; treatment 2 hours post infection compared to 72 hours delayed treatment
  reduction in viral DNA load: highest reduction in viral DNA load
[1]
  brain exposure: highest brain exposure reported to date
